Source: publication PMC6837725

Assay: Intramolecular Suzuki-Miyaura C(sp3)-C(sp2) coupling (cis-4-chlorocyclobut-2-ene carboxylate + E-vinyl-BPin) followed by spontaneous 4pi-electrocyclic ring opening to the (E,E,E)-trienoate macrolactone; Pd(PPh3)4 10 mol%, Cs2CO3 5 equiv
Settings: 19-membered ring, THF/H2O 3:1, 2.0 mM, 25.0 °C

## C/C(=C\C=C\C(F)(F)F)[C@H]1CC(=O)NC[C@H](O[Si](C)(C)C(C)(C)C)[C@H](C)C(=O)NCC/C=C/C=C/C=C/C(=O)O1
From C/C(=C\C=C\C(F)(F)F)[C@@H](CC(=O)NC[C@H](O[Si](C)(C)C(C)(C)C)[C@H](C)C(=O)NCC/C=C/B1OC(C)(C)C(C)(C)O1)OC(=O)C1C=CC1Cl
  ring closure, isolated yield: 73%

## C[C@@H]1C(=O)NCC/C=C/C=C/C=C/C(=O)O[C@@H](C)CC(=O)NC[C@@H]1O[Si](C)(C)C(C)(C)C
From C[C@H](C(=O)NCC/C=C/B1OC(C)(C)C(C)(C)O1)[C@H](CNC(=O)C[C@H](C)OC(=O)C1C=CC1Cl)O[Si](C)(C)C(C)(C)C
  ring closure, isolated yield: 84%

## CCCCCCC/C=C/C=C(\C)[C@H]1CC(=O)NC[C@H](O[Si](C)(C)C(C)(C)C)[C@H](C)C(=O)NCC/C=C/C=C/C=C/C(=O)O1 [cis-31a -> 32a (FR252921)]
From CCCCCCC/C=C/C=C(\C)[C@@H](CC(=O)NC[C@H](O[Si](C)(C)C(C)(C)C)[C@H](C)C(=O)NCC/C=C/B1OC(C)(C)C(C)(C)O1)OC(=O)C1C=CC1Cl
  ring closure, isolated yield: 74%

## CCCCCCCCC/C=C/C=C(\C)[C@H]1CC(=O)NC[C@H](O[Si](C)(C)C(C)(C)C)[C@H](C)C(=O)NCC/C=C/C=C/C=C/C(=O)O1 [cis-31b -> 32b (FR252922)]
From CCCCCCCCC/C=C/C=C(\C)[C@@H](CC(=O)NC[C@H](O[Si](C)(C)C(C)(C)C)[C@H](C)C(=O)NCC/C=C/B1OC(C)(C)C(C)(C)O1)OC(=O)C1C=CC1Cl
  ring closure, isolated yield: 82%

## CCCCCCC/C=C/C=C/C=C(\C)[C@H]1CC(=O)NC[C@H](O[Si](C)(C)C(C)(C)C)[C@H](C)C(=O)NCC/C=C/C=C/C=C/C(=O)O1 [cis-31c -> 32c (FR256523)]
From CCCCCCC/C=C/C=C/C=C(\C)[C@@H](CC(=O)NC[C@H](O[Si](C)(C)C(C)(C)C)[C@H](C)C(=O)NCC/C=C/B1OC(C)(C)C(C)(C)O1)OC(=O)C1C=CC1Cl
  ring closure, isolated yield: 71%

## CCCCCCCCCCC[C@H]1CC(=O)NC[C@H](O[Si](C)(C)C(C)(C)C)[C@H](C)C(=O)NCC/C=C/C=C/C=C/C(=O)O1 [cis-31d -> 32d (FR1, C11H23 side chain)]
From CCCCCCCCCCC[C@@H](CC(=O)NC[C@H](O[Si](C)(C)C(C)(C)C)[C@H](C)C(=O)NCC/C=C/B1OC(C)(C)C(C)(C)O1)OC(=O)C1C=CC1Cl
  ring closure, isolated yield: 56%

## CCCCCCC/C=C/C=C(\C)[C@H]1CC(=O)NC[C@H](O[Si](C)(C)C(C)(C)C)CC(=O)NCC/C=C/C=C/C=C/C(=O)O1 [cis-31f -> 32f (FR3, C12-desmethyl)]
From CCCCCCC/C=C/C=C(\C)[C@@H](CC(=O)NC[C@@H](CC(=O)NCC/C=C/B1OC(C)(C)C(C)(C)O1)O[Si](C)(C)C(C)(C)C)OC(=O)C1C=CC1Cl
  ring closure, isolated yield: 73%

## CCCCCCC/C=C/C=C(\C)[C@H]1CC(=O)NCCCC(=O)NCC/C=C/C=C/C=C/C(=O)O1 [cis-31g -> FR4 (no C12-Me, no C13-O)]
From CCCCCCC/C=C/C=C(\C)[C@@H](CC(=O)NCCCC(=O)NCC/C=C/B1OC(C)(C)C(C)(C)O1)OC(=O)C1C=CC1Cl
  ring closure, isolated yield: 55%

## C/C(=C\C=C\c1ccccc1)[C@H]1CC(=O)NC[C@H](O[Si](C)(C)C(C)(C)C)[C@H](C)C(=O)NCC/C=C/C=C/C=C/C(=O)O1 [cis-31i -> 32i (FR6, Ph-dienyl)]
From C/C(=C\C=C\c1ccccc1)[C@@H](CC(=O)NC[C@H](O[Si](C)(C)C(C)(C)C)[C@H](C)C(=O)NCC/C=C/B1OC(C)(C)C(C)(C)O1)OC(=O)C1C=CC1Cl
  ring closure, isolated yield: 80%

## C/C(=C\C=C\c1ccc(C)cc1)[C@H]1CC(=O)NC[C@H](O[Si](C)(C)C(C)(C)C)[C@H](C)C(=O)NCC/C=C/C=C/C=C/C(=O)O1 [cis-31j -> 32j (FR7, p-tolyl-dienyl)]
From C/C(=C\C=C\c1ccc(C)cc1)[C@@H](CC(=O)NC[C@H](O[Si](C)(C)C(C)(C)C)[C@H](C)C(=O)NCC/C=C/B1OC(C)(C)C(C)(C)O1)OC(=O)C1C=CC1Cl
  ring closure, isolated yield: 20%

## C/C(=C\C=C\c1ccc(C(F)(F)F)cc1)[C@H]1CC(=O)NC[C@H](O[Si](C)(C)C(C)(C)C)[C@H](C)C(=O)NCC/C=C/C=C/C=C/C(=O)O1 [cis-31k -> 32k (FR8, p-CF3-phenyl-dienyl)]
From C/C(=C\C=C\c1ccc(C(F)(F)F)cc1)[C@@H](CC(=O)NC[C@H](O[Si](C)(C)C(C)(C)C)[C@H](C)C(=O)NCC/C=C/B1OC(C)(C)C(C)(C)O1)OC(=O)C1C=CC1Cl
  ring closure, isolated yield: 47%

## C[C@@H]1C(=O)NCC/C=C/C=C/C=C/C(=O)O[C@@H](c2ccc(Br)cc2)CC(=O)NC[C@@H]1O[Si](C)(C)C(C)(C)C [cis-31l -> 32l (FR9, 4-bromophenyl)]
From C[C@H](C(=O)NCC/C=C/B1OC(C)(C)C(C)(C)O1)[C@H](CNC(=O)C[C@@H](OC(=O)C1C=CC1Cl)c1ccc(Br)cc1)O[Si](C)(C)C(C)(C)C
  ring closure, isolated yield: 58%

## C/C(=C\Br)[C@H]1CC(=O)NC[C@H](O[Si](C)(C)C(C)(C)C)[C@H](C)C(=O)NCC/C=C/C=C/C=C/C(=O)O1 [cis-31m -> 32m (FR10, bromovinyl)]
From C/C(=C\Br)[C@@H](CC(=O)NC[C@H](O[Si](C)(C)C(C)(C)C)[C@H](C)C(=O)NCC/C=C/B1OC(C)(C)C(C)(C)O1)OC(=O)C1C=CC1Cl
  ring closure, isolated yield: 54%

## C[C@@H]1C(=O)NCC/C=C/C=C/C=C/C(=O)O[C@@H](c2ccc3ccccc3c2)CC(=O)NC[C@@H]1O[Si](C)(C)C(C)(C)C [cis-31n -> 32n (FR11, 2-naphthyl)]
From C[C@H](C(=O)NCC/C=C/B1OC(C)(C)C(C)(C)O1)[C@H](CNC(=O)C[C@@H](OC(=O)C1C=CC1Cl)c1ccc2ccccc2c1)O[Si](C)(C)C(C)(C)C
  ring closure, isolated yield: 51%
